Patent US20230000769A1, “OIL-IN-WATER EMULSION FORMULATIONS FOR DELIVERY OF ACTIVE OR THERAPEUTIC AGENTS” (IMMUNOVACCINE TECHNOLOGIES INC., priority 2019, published 2023)

Assay: HPLC analysis of oil (top) and aqueous (bottom) layers of centrifuged O/W emulsions
Assay type: physicochemical
Conditions: control or Bottom layer-Water; target 8.00 mg/mL
Protocol: O/W emulsions were prepared by combining the hydrophobic phase (DPX-empty in Montanide™ ISA 51 oil) and the aqueous phase (containing an aqueous phase agent) with 120 passes through a Vygon™ connector.
For analysis by High Performance Liquid Chromatography (HPLC), the O/W emulsion formulations were centrifuged at 15,000 RPM for 30 minutes to separate oil (top) and aqueous (bottom) layers, and samples from both layers were analysed. Samples were prepared using n-Butanol Extraction method (for oil phase) and Total solubilization method (for aqueous phase). n-Butanol Extraction method (for oil phase): To 100 μL of the top layer oil sample 300 μL of 0.1M NaHCO3 and 400 μL of water saturated 1-Butanol were added. Sample was vortexed to mix and centrifuged for 2 mins at 5000 RPM. The bottom layer was taken for analysis. Total solubilization method (for aqueous phase): To 75 μL of the bottom layer aqueous sample, up to 5 mL of mobile phase A was added. The mobile phases used for cyclophosphamide, oligonucleotide and anti-CTLA4 analysis were as follows, Cyclophosphamide: Mobile Phase A: 30% acetonitrile in water; Mobile Phase B: methanol. Oligonucleotide: Mobile Phase A: mix of tris, acetonitrile, water; Mobile Phase B: mix of tris, NaCL, acetonitrile, water. Anti-CTLA4: Mobile Phase A: 0.1% TFA/water; Mobile Phase B: 0.1% TFA/acetonitrile; Mobile Phase C: methanol. […]

O=P1(N(CCCl)CCCl)NCCCO1 (stereo not shown) [Cyclophosphamide control, N,N-bis(2-chloroethyl)-1,3,2-oxazaphosphinan-2-amine 2-oxide]
Cyclophosphamide Concentration: 6.76 mg/mL
